Experimental data: patent publication US5070210A, “Novel ketenimines as intermediates for insecticides” (ICI Americas Inc., priority 1990, dated 1991)

Experiments:
Format in all cases: in vivo
[1] = test system: Housefly [Musca domestica]; assay: Housefly insecticidal test; conditions: μg per 25 female flies; mortality after 48 hours
In short: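 Residual contact test: acetone dilution, 0.01% peanut oil spreader, solvent evaporated; 25 ♀ flies (1-2 d old) per cage; sugar-water plug; 48 h mortality read. LC50 in μg/25 female flies, from dose-mortality curves; top dose 100 μg/25 flies.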

[2] = test system: Tobacco Budworm [Heliothis virescens (Fabricius)] larvae; assay: Tobacco budworm contact test; conditions: second-instar larvae, percent in solution, 5 days
Protocol: The compounds in Tables 1 and 2 above were tested for insecticidal activity using the following testing procedures. LC50 values, based on the results of these tests and calculated according to dosage-mortality curves, are expressed in Table 3.
Tobacco Budworm [Heliothis virescens (Fabricius)]:
(a) Contact: Test compounds were diluted in a 50-50 acetone-water solution. Cotton (Gossypium sp.) cotyledons were immersed in the test solutions for 2-3 seconds and placed on a wire screen to dry. The dried leaves were placed in petri dishes containing a moistened piece of filter paper and infested with 5 second-instar tobacco budworm larvae. The dishes were placed in a high humidity chamber for 5 days, and percent mortality of the larvae recorded. Test concentrations ranged from 0.1% downward. The LC-50 values are expressed below in Table 3 under the heading "TBW-C" in terms of percent of the test compound in the solution.

[3] = test system: Tobacco Budworm [Heliothis virescens (Fabricius)] eggs; assay: Tobacco budworm egg test; conditions: 2-day old eggs, percent in solution
In short: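 2-day eggs on paper towel, acetone dip, 0.1% and below; petri dish with larval diet, 78° F. Mortality read after control hatch and larval feeding. LC50 = % compound in solution, from dose-mortality curve.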

[4] = test system: Cabbage Looper [Trichoplusia ni (Hubner)]; assay: Cabbage looper insecticidal test; conditions: second-instar larvae, percent in solution; 3-5 days
In short: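 LC50 values, given as percent test compound in solution, were calculated from dosage-mortality curves. Squash cotyledons were immersed 2-3 s in acetone-water (50-50) dilutions starting at 0.1%, dried on a screen, then infested with five second-instar larvae. Mortality was read 3-5 days on.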

[5] = test system: Aster Leafhopper [Macrosteles fascifrens (Stal)]; assay: Aster leafhopper insecticidal test; conditions: adults/nymphs, percent in solution; 48 hours
In short: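 Three ~10 cm oat seedlings per cup were dipped 2-3 seconds in 50-50 acetone-water compound solutions, dried, and caged with ten adult/nymph leafhoppers. Mortality was counted after 48 hours at concentrations from 0.05% downward. LC50, as percent compound in solution, came from dosage-mortality curves.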

[6] = test system: Maize weevil [Sitophilus Zeamais (Motschulsky)]; assay: Maize weevil insecticidal test; conditions: adult weevils, percent in solution; 48 hours
In short: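 LC50, in percent of compound in solution, was derived from dosage-mortality curves after 48 h at about 25 °C. Ten adult weevils per container fed on four corn seeds briefly immersed in acetone:water (50:50) solutions of up to 0.01% and dried.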

Row | SMILES | LC50, HF [1] [µg] | LC50, TBW, C (TBW-C) [2] [%] | LC50, TBW, E (TBW-E) [3] [%] | LC50, CL [4] [%] | LC50, LH [5] [%] | LC50, MW [6] [%]
1 | CC1(C(=Nc2ccc(Cl)cc2)OCc2cccc(Oc3ccccc3)c2)CC1 [Compound 5] | 21 | 0.008 | 0.05 | 0.005 | > 0.05 | > 0.01
2 | CC(C)(C)C(=Nc1ccc(Cl)cc1)OCc1cccc(Oc2ccccc2)c1 [Compound 30] | > 100 | 0.01 | > 0.1 | 0.003 | > 0.05 | > 0.01
3 | CC(C)C(=Nc1ccc(Cl)c(Cl)c1)OCc1cccc(Oc2ccc(F)cc2)c1 [Compound 37] | 21 | 0.0005 | 0.014 | 0.0004 | 0.002 | 0.009
4 | CC(C)C(=Nc1ccc(F)c(F)c1)OCc1cccc(Oc2ccc(F)cc2)c1 [Compound 60] | 8 | 0.0009 | 0.017 | 0.001 | 0.002 | 0.0075
5 | CC(C)C(=Nc1ccc(F)c(C(F)(F)F)c1)OCc1cccc(Oc2ccc(F)cc2)c1 [Compound 120] | 14 | 0.0025 | 0.04 | 0.00015 | 0.0003 | > 0.01
6 | CCOc1ccc(N=C(OCc2cccc(Oc3ccccc3)c2)C(Cl)Cl)cc1 [Compound 138] | 19 | 0.015 | 0.08 | 0.005 | > 0.05 | > 0.01
7 | COc1ccccc1N=C(OCc1cccc(Oc2ccccc2)c1)C(C)C [Compound 145] | > 100 | 0.05 | > 0.1 | 0.05 | > 0.05 | 
8 | CC(C)C(=Nc1cccc(Cl)c1)OCc1cccc(Oc2ccc(F)cc2)c1 [Compound 194] | 10 | 0.0017 | 0.04 | 0.0005 | 0.0005 | > 0.01
9 | CC(C)C(=Nc1ccc(F)c(Cl)c1)OCc1cccc(Oc2ccc(C#N)cc2)c1 [Compound 196] | 17 | 0.001 | > 0.1 | 0.0006 | > 0.05 | > 0.01
10 | CC(C)C(=Nc1cccc(C(F)(F)F)c1)OCc1cccc(Oc2ccc(F)cc2)c1 [Compound 202] | 18 | 0.0007 | > 0.1 | 0.00024 | 0.0003 | > 0.01
11 | CC(C)C(=Nc1ccc(F)cc1F)OCc1cccc(Oc2ccc(F)cc2)c1 [Compound 209] | 17 | 0.005 | 0.1 | 0.0007 | 0.001 | > 0.01
12 | CC(C)C(=Nc1ccc(Br)cc1)OCc1cccc(Oc2ccc(F)cc2)c1 [Compound 226] | 16 | 0.001 | 0.1 | 0.0005 | 0.002 | 0.009
13 | CC(C)C(=Nc1ccc(I)cc1)OCc1cccc(Oc2ccc(F)cc2)c1 [Compound 234] | 38 | 0.0013 | 0.09 | 0.00045 | 0.003 | > 0.01
14 | CC(C)C(=Nc1ccc(F)c(Cl)c1)OCc1cccc(Oc2ccc(Br)cc2)c1 [Compound 238] | 25 | 0.0004 | 0.05 | 0.0002 | > 0.05 | > 0.01
